Series [1] concerns Puccinia recondita. The series is described as follows: in vivo preventive test on Puccinia recondita (brown rust on wheat). To be noted: for pest or weed control at 500 ppm: Puccinia recondita, 264 h, 500 ppm of active ingredient, young wheat plants sprayed, inoculated after 24 hours, evaluated 11 days after the inoculation, read-out: efficacy. As for the experimental part:
Example: in vivo preventive test on Puccinia recondita (brown rust on wheat)
(§1) The active ingredients were made soluble and homogenized in a mixture of Dimethyl sulfoxide/Acetone/ /Tween® 80 and then diluted in water to the desired concentration.
The young plants of wheat were treated by spraying the active ingredient prepared as described above. Control plants were treated only with an aqueous solution of Acetone/Dimethyl sulfoxide/ Tween® 80.
After 24 hours, the plants were contaminated by spraying the leaves with an aqueous suspension of Puccinia recondita spores. The contaminated wheat plants were incubated for 24 hours at 20°C and at 100% relative humidity and then for 10 days at 20°C and at 70-80% relative humidity.
The test was evaluated 11 days after the inoculation. 0% means an efficacy which corresponds to that of the control plants while an efficacy of 100% means that no disease was observed.

Series [2] concerns Sphaerotheca fuliginea. The series is described as follows: in vivo preventive test on Sphaerotheca fuliginea (powdery mildew on cucurbits). The conditions noted are these: Podosphaera fuliginea, 192 h; 500 ppm of active ingredient; young gherkin plants sprayed, inoculated after 24 hours, evaluated 8 days after the inoculation; read-out: efficacy. As to the method:
Example: in vivo preventive test on Sphaerotheca fuliginea (powdery mildew on cucurbits)
as §1
The young plants of gherkin were treated by spraying the active ingredient prepared as described above. Control plants were treated only with an aqueous solution of Acetone/Dimethyl sulfoxide/ […].
After 24 hours, the plants were contaminated by spraying the leaves with an aqueous suspension of Sphaerotheca fuliginea spores. The contaminated gherkin plants were incubated for 8 days at 20°C and at 70-80% relative humidity.
The test was evaluated 8 days after the inoculation. 0% means an efficacy which corresponds to that of the control plants while an efficacy of 100% means that no disease was observed.

Series [3] has as its system Phakospora pachyrhizi. The experiment in a line: in vivo preventive test on Phakospora pachyrhizi (soybean rust). The conditions noted are these: for pest or weed control at 500 ppm: Glycine max, 288 h, 500 ppm of active ingredient, young soybean plants sprayed, inoculated after 24 hours, evaluated 12 days after the inoculation, read-out: efficacy. As to the method: Example: in vivo preventive test on Phakospora pachyrhizi (soybean rust)
as §1
The young plants of soybean were treated by spraying the active ingredient prepared as described above. Control plants were treated only with an aqueous solution of Acetone/Dimethyl sulfoxide/ […].
After 24 hours, the plants were contaminated by spraying the leaves with an aqueous suspension of Phakosporapachyrhizi spores. The contaminated soybean plants were incubated for 24 hours at 24°C and at 100% relative humidity and then for 11 days at 24°C and at 70-80% relative humidity.
The test was evaluated 12 days after the inoculation. 0% means an efficacy which corresponds to that of the control plants while an efficacy of 100% means that no disease was observed.

A short description of series [4]: LogP measurement by HPLC on reversed phase columns (EEC directive 79/831 Annex V.A8). The format is physicochemical. As for the experimental part:
If more than one LogP value is available within the same method, all the values are given and separated by "+".
Lambda-max-values were determined using UV-spectra from 200 nm to 400 nm and the peak values of the chromatographic signals.

Setting [5] is: reversed phase HPLC column, method [a]: LC-UV, acidic range, 0.1% formic acid in water and acetonitrile as eluent.
Setting [6] is: reversed phase HPLC column, method [b]: LC-UV, neutral range, 0.001 molar ammonium acetate solution in water and acetonitrile as eluent.

The text below walks through data of patent publication EP3708565A1, “PYRIMIDINYLOXYPHENYLAMIDINES AND THE USE THEREOF AS FUNGICIDES” (Bayer AG, priority 2020, dated 2020).

One may read the chromatographic logP as lipophilicity estimated from chromatographic retention.

With `CCC(C)Sc1nccc(Oc2cc(C)c(N=CN(C)CC)cc2C)n1` (racemic) [I.004, N'-[2,5-dimethyl-4-[2-[rac-(2R)-butan-2-yl]sulfanylpyrimidin-4-yl]oxyphenyl]-N-ethyl-N-methylmethanimidamide], the pest or weed control at 500 ppm in series [1], in series [2] and in series [3] was ≥ 70% each time. This compound gave a chromatographic logP in series [4] (setting [5]) of 1.87.

On to `CCN(C)C=Nc1cc(Br)c(Oc2ccnc(SC(C)(C)C)n2)cc1C` [I.001, N'-[5-bromo-4-(2-tert-butylsulfanylpyrimidin-4-yl)oxy-2-methylphenyl]-N-ethyl-N-methyl-methanimidamide], for which the pest or weed control at 500 ppm in series [1], in series [2] and in series [3] was ≥ 70% in each case. The chromatographic logP in series [4] (setting [5]) was 1.72; in series [4] (setting [6]), 4.95.

For the compound `CCN(C)C=Nc1cc(C)c(Oc2ccnc(SCCC(C)C)n2)cc1C` [I.002, N'-[2,5-dimethyl-4-[2-(3-methylbutylsulfanyl)pyrimidin-4-yl]oxyphenyl]-N-ethyl-N-methyl-methanimidamide], the pest or weed control at 500 ppm in series [1], in series [2] and in series [3] was ≥ 70% each time. Also, the chromatographic logP in series [4] (setting [5]) turned out to be 1.9; in series [4] (setting [6]) it was 5.66.

Turning to `CCN(C)C=Nc1cc(C)c(Oc2ccnc(CCC(C)(C)C)n2)cc1C` [I.003, N'-[4-[2-(3,3-dimethylbutyl)pyrimidin-4-yl]oxy-2,5-dimethylphenyl]-N-ethyl-N-methylmethan-imidamide], the pest or weed control at 500 ppm in series [1], in series [2] and in series [3] was ≥ 70% each time. In addition, the results for the chromatographic logP in series [4] (setting [5]) and in series [4] (setting [6]) were 1.63 and 4.89, respectively.

Consider `CCN(C)C=Nc1cc(Br)c(Oc2ccnc(SCC(F)(F)F)n2)cc1C` [I.005, N'-[5-bromo-2-methyl-4-[2-(2,2,2-trifluoroethylsulfanyl)pyrimidin-4-yl]oxyphenyl]-N-ethyl-N-methylmethanimidamide], for which the pest or weed control at 500 ppm in series [1], in series [2] and in series [3] was ≥ 70% throughout. The chromatographic logP in series [4] (setting [5]) came out at 1.58; in series [4] (setting [6]), 4.66.

As for `CCN(C)C=Nc1cc(C)c(Oc2ccnc(SCC(F)(F)F)n2)cc1Cl` [I.006, N'-[2-chloro-5-methyl-4-[2-(2,2,2-trifluoroethylsulfanyl)pyrimidin-4-yl]oxyphenyl]-N-ethyl-N-methylmethanimidamide], the pest or weed control at 500 ppm in series [1], in series [2] and in series [3] was ≥ 70% each time. The chromatographic logP in series [4] (setting [5]) was 1.53; in series [4] (setting [6]) it was 4.19.

For `CCN(C)C=Nc1cc(Br)c(Oc2ccnc(SCC(C)C)n2)cc1C` [I.007, N'-[5-bromo-2-methyl-4-[2-(2-methylpropylsulfanyl)pyrimidin-4-yl]oxyphenyl]-N-ethyl-N-methylmethanimidamide], the pest or weed control at 500 ppm in series [1], in series [2] and in series [3] was ≥ 70% throughout. Moreover, the values for the chromatographic logP in series [4] (setting [5]) and in series [4] (setting [6]) were 1.81 and 5.25, respectively.

Regarding `CCN(C)C=Nc1cc(C)c(Oc2ccnc(SCC(C)C)n2)cc1C` [I.026, N'-[2,5-dimethyl-4-[2-(2-methylpropylsulfanyl)pyrimidin-4-yl]oxyphenyl]-N-ethyl-N-methyl-methanimidamide], the pest or weed control at 500 ppm in series [1] and in series [3] was ≥ 70% each time. Besides, the chromatographic logP came to 1.61 in series [4] (setting [5]) and 5.06 in series [4] (setting [6]).

Take `CCN(C)C=Nc1cc(C)c(Oc2ccnc(C(C)(C)C)n2)cc1C` [I.032, N'-[4-(2-tert-butylpyrimidin-4-yl)oxy-2,5-dimethylphenyl]-N-ethyl-N-methylmethanimidamide]: the pest or weed control at 500 ppm in series [1] and in series [3] was ≥ 70% each time. In addition, the values for the chromatographic logP in series [4] (setting [5]) and in series [4] (setting [6]) were 1.46 and 4.56, respectively.

For the compound `CCN(C)C=Nc1cc(C(F)(F)F)c(Oc2ccnc(SCC(C)C)n2)cc1C` [I.035, N-ethyl-N-methyl-N'-[2-methyl-4-[2-(2-methylpropylsulfanyl)pyrimidin-4-yl]oxy-5-(trifluoromethyl)phenyl]methanimidamide], the pest or weed control at 500 ppm in series [1] and in series [3] was ≥ 70% in each case. This compound also came in with a chromatographic logP in series [4] (setting [5]) of 1.93.

`CCN(C)C=Nc1cc(Br)c(Oc2ccnc(C(C)(C)C)n2)cc1C` [I.038, N'-[5-bromo-4-(2-tert-butylpyrimidin-4-yl)oxy-2-methylphenyl]-N-ethyl-N-methylmethanimid-amide]: the efficacy entry in series [1] (500 ppm) and in series [3] (500 ppm) was “at least 70%” in each case. Further, the chromatographic logP in series [4] (method [a]: LC-UV, acidic range, 0.1% formic acid in water and acetonitrile as eluent) came out at 1.58; in series [4] (method [b]: LC-UV, neutral range, 0.001 molar ammonium acetate solution in water and acetonitrile as eluent), 4.93.

Regarding `CCN(C)C=Nc1cc(C)c(Oc2ccnc(SC(C)C)n2)cc1Cl` [I.046, N'-[2-chloro-5-methyl-4-(2-propan-2-ylsulfanylpyrimidin-4-yl)oxyphenyl]-N-ethyl-N-methyl-methanimidamide], in series [1], the pest or weed control at 500 ppm was ≥ 70%. Further, the chromatographic logP was determined as 1.52 in series [4] (setting [5]) and 4.35 in series [4] (setting [6]).

`CCN(C)C=Nc1cc(C)c(Oc2ccnc(Sc3ccncc3)n2)cc1C` [I.047, N'-[2,5-dimethyl-4-(2-pyridin-4-ylsulfanylpyrimidin-4-yl)oxyphenyl]-N-ethyl-N-methylmethan-imidamide]: the pest or weed control at 500 ppm in series [2] is ≥ 70%. The compound further returned a chromatographic logP in series [4] (setting [5]) of 1.13.

As to `CCN(C)C=Nc1cc(C)c(Oc2ccnc(SCC(C)C)n2)cc1Cl` [I.048, N'-[2-chloro-5-methyl-4-[2-(2-methylpropylsulfanyl)pyrimidin-4-yl]oxyphenyl]-N-ethyl-N-methylmethanimidamide], the pest or weed control at 500 ppm in series [1] and in series [2] was ≥ 70% each time. The chromatographic logP came out at 1.72 in series [4] (setting [5]) and 4.77 in series [4] (setting [6]).

For `CCN(C)C=Nc1cc(C#N)c(Oc2ccnc(SCC(C)C)n2)cc1C` [I.049, N'-[5-cyano-2-methyl-4-[2-(2-methylpropylsulfanyl)pyrimidin-4-yl]oxyphenyl]-N-ethyl-N-methylmethanimidamide], the pest or weed control at 500 ppm in series [1] and in series [2] was ≥ 70% in each case. The values for the chromatographic logP in series [4] (setting [5]) and in series [4] (setting [6]) were 1.6 and 4.5, respectively.

Regarding `CCCSc1nccc(Oc2cc(C)c(N=CN(C)CC)cc2C#N)n1` [I.050, N'-[5-cyano-2-methyl-4-(2-propylsulfanylpyrimidin-4-yl)oxyphenyl]-N-ethyl-N-methylmethan-imidamide], the pest or weed control at 500 ppm in series [1] and in series [2] was ≥ 70% in each case. Also, the chromatographic logP stood at 1.44 in series [4] (setting [5]) and 4.16 in series [4] (setting [6]).

`CCN(C)C=Nc1cc(C(F)F)c(Oc2nc(SCC(C)C)ncc2C)cc1C` [I.051, N'-[5-(difluoromethyl)-2-methyl-4-[5-methyl-2-(2-methylpropylsulfanyl)pyrimidin-4-yl]oxyphenyl]-N-ethyl-N-methylmethanimidamide]: the pest or weed control at 500 ppm in series [2] is ≥ 70%. Besides, the chromatographic logP in series [4] (setting [5]) worked out at 1.9.
